Measurements from patent EP0490450A1, “Heterocyclic carboxylic esters, methods for their preparation and their use for the preparation of gastrointestinal medicines” (YAMANOUCHI EUROPE B.V., priority 1990, dated 1992).

Test system: Helicobacter pylori
Experiment: Paper disc inhibition assay on blood agar plates (inhibition zone)
Assay type: cell-based
Description: The test organisms used in the inhibition assay were fresh isolates of Helicobacter pylori from patients with duodenal ulcer or non-ulcer dyspepsia, except strain NCTC 11637 which originates from a deposit freely available to the public. NCTC 11637 is a metronidazole resistant strain. All strains were stored frozen. For each inhibition assay fresh strains were thawed in a waterbath at 37°C. Helicobacter pylori strains were incubated with shaking (150 rpm) for 48 hours in 10 ml brain heart infusion […] containing 7% fetal calf serum at 37°C under an atmosphere of 10% CO₂, 5% O₂ and 85% N₂. After washing with phosphate buffered saline and centrifugation the pellet was resuspended and diluted until a density of 10-20 nephelometric turbidity units was achieved and subsequently smeared on blood agar plates. A paper disc with a diameter of 7 mm was placed in the centre of the plate. The test compounds were dissolved in dimethylsulfoxide (DMSO) and 20 µl of these solutions were applied to the disc. After three days of culturing at 37°C under microaerophilic conditions the inhibition zone was measured in mm.
Table I. In vitro activity of the compounds according to the invention on Helicobacter pylori. Inhibition zones are given in mm, 7 mm means no activity.
Compound GBR 24156, an ester of penicillin V and metronidazole has, in a concentration of 1.7 µg/ml, been compared with the combination of single substances penicillin V and metronidazole, both in a concentration of 0.85 µg/ml.
Table II. In vitro activity of GBR 24156 compared to the activity of penicillin V and metronidazole on Helicobacter pylori. Inhibition zones are given in mm; 7 mm means no activity.

[1] = Helicobacter pylori, 72 h, H. pylori strain A85, concentration 50 µg/ml, 7 mm means no activity
[2] = Helicobacter pylori, 72 h, H. pylori strain C85, concentration 50 µg/ml, 7 mm means no activity
[3] = Helicobacter pylori, 72 h, H. pylori strain D9, concentration 50 µg/ml (20 µl on 7 mm disc), 7 mm means no activity
[4] = Helicobacter pylori, 72 h, H. pylori strain D20, concentration 50 µg/ml, 7 mm means no activity
[5] = Helicobacter pylori, NCTC11637, 72 h, H. pylori strain NCTC 11637 (metronidazole resistant), concentration 50 µg/ml, 7 mm means no activity
[6] = Helicobacter pylori, 72 h, H. pylori strain A85, concentration 20 µg/ml, 7 mm means no activity
[7] = Helicobacter pylori, 72 h, H. pylori strain B104, concentration 20 µg/ml, 7 mm means no activity
[8] = Helicobacter pylori, 72 h, H. pylori strain C85, concentration 20 µg/ml, 7 mm means no activity
[9] = Helicobacter pylori, 72 h, H. pylori strain D9, concentration 20 µg/ml (20 µl on 7 mm disc), 7 mm means no activity
[10] = Helicobacter pylori, 72 h, H. pylori strain D20, concentration 20 µg/ml, 7 mm means no activity
[11] = Helicobacter pylori, 72 h, H. pylori strain D29, concentration 20 µg/ml, 7 mm means no activity
[12] = Helicobacter pylori, NCTC11637, 72 h, H. pylori strain NCTC 11637 (metronidazole resistant), concentration 20 µg/ml, 7 mm means no activity

Compound: Cc1ncc([N+](=O)[O-])n1CCOC(=O)COC(=O)C(C)(C)O/N=C(\C(=O)N[C@@H]1C(=O)N(S(=O)(=O)O)[C@H]1C)c1csc(N)n1 [GBR 24165]
- zone of inhibition at 50 µg/mL [1]: 29 mm
- zone of inhibition at 50 µg/mL [2]: 10 mm
- zone of inhibition at 50 µg/mL [3]: 36 mm
- zone of inhibition at 50 µg/mL [4]: 12 mm
- zone of inhibition at 50 µg/mL [5]: 33 mm

Compound: Cc1ncc([N+](=O)[O-])n1CCOC(=O)COC(=O)[C@@H]1N2C(=O)[C@@H](NC(=O)COc3ccccc3)[C@H]2SC1(C)C [GBR 24157, [2-(2-Methyl-5-nitroimidazol-1-yl)ethoxy] carbonylmethyl (3S,5R,6R)-2,2-dimethyl-6-phenoxyacetamidopenam-3-carboxylate]
- zone of inhibition at 20 µg/mL [6]: 10 mm
- zone of inhibition at 20 µg/mL [7]: 11 mm
- zone of inhibition at 20 µg/mL [8]: 14 mm
- zone of inhibition at 20 µg/mL [9]: 28 mm
- zone of inhibition at 20 µg/mL [10]: 24 mm
- zone of inhibition at 20 µg/mL [11]: 13 mm
- zone of inhibition at 20 µg/mL [12]: 7 mm

Compound: Cc1ncc([N+](=O)[O-])n1CCOC(=O)COC(=O)[C@@H]1N2C(=O)[C@@H](NC(=O)[C@H](N)c3ccc(O)cc3)[C@H]2SC1(C)C [GBR 24208, [2-(2-Methyl-5-nitroimidazol-1-yl)ethoxy]carbonylmethyl(3S,5R,6R)-6-[(R)-2-amino-2-(4-hydroxyphenyl)acetamido]-2,2-dimethylpenam-3-carboxylate]
- zone of inhibition at 268 µg/mL (Helicobacter pylori, 72 h, H. pylori strain A85, concentration 268 µg/ml, 7 mm means no activity): 10 mm
- zone of inhibition at 268 µg/mL (Helicobacter pylori, 72 h, H. pylori strain D9, concentration 268 µg/ml (20 µl on 7 mm disc), 7 mm means no activity): 15 mm
- zone of inhibition at 268 µg/mL (Helicobacter pylori, NCTC11637, 72 h, H. pylori strain NCTC 11637 (metronidazole resistant), concentration 268 µg/ml, 7 mm means no activity): 10 mm

Compound: Cc1ncc([N+](=O)[O-])n1CCOC(=O)C(C)(C)O/N=C(\C(=O)N[C@@H]1C(=O)N(S(=O)(=O)O)[C@H]1C)c1csc(N)n1 [GBR 24164]
- zone of inhibition at 100 µg/mL (Helicobacter pylori, 72 h, H. pylori strain B104, concentration 100 µg/ml, 7 mm means no activity): 20 mm
- zone of inhibition at 100 µg/mL (Helicobacter pylori, 72 h, H. pylori strain C85, concentration 100 µg/ml, 7 mm means no activity): 7 mm
- zone of inhibition at 100 µg/mL (Helicobacter pylori, 72 h, H. pylori strain D9, concentration 100 µg/ml (20 µl on 7 mm disc), 7 mm means no activity): 16 mm
- zone of inhibition at 100 µg/mL (Helicobacter pylori, 72 h, H. pylori strain D20, concentration 100 µg/ml, 7 mm means no activity): 7 mm
- zone of inhibition at 100 µg/mL (Helicobacter pylori, 72 h, H. pylori strain D29, concentration 100 µg/ml, 7 mm means no activity): 12 mm
- zone of inhibition at 100 µg/mL (Helicobacter pylori, NCTC11637, 72 h, H. pylori strain NCTC 11637 (metronidazole resistant), concentration 100 µg/ml, 7 mm means no activity): 7 mm

Compound: Cc1ncc([N+](=O)[O-])n1CCOC(=O)OCOC(=O)[C@@H]1N2C(=O)[C@@H](NC(=O)COc3ccccc3)[C@H]2SC1(C)C [GBR 24158, [2-(2-Methyl-5-nitroimidazol-1-yl)ethoxy]carbonyloxymethyl (3S,5R,6R)-2,2-dimethyl-6-phenoxyacetamidopenam-3-carboxylate]
- zone of inhibition at 20 µg/mL [6]: 19 mm
- zone of inhibition at 20 µg/mL [7]: 27 mm
- zone of inhibition at 20 µg/mL [8]: 29 mm
- zone of inhibition at 20 µg/mL [9]: 47 mm
- zone of inhibition at 20 µg/mL [10]: 34 mm
- zone of inhibition at 20 µg/mL [11]: 20 mm
- zone of inhibition at 20 µg/mL [12]: 15 mm

Compound: Cc1ncc([N+](=O)[O-])n1CCOC(=O)[C@@H]1N2C(=O)[C@@H](NC(=O)COc3ccccc3)[C@H]2SC1(C)C [GBR 24156, 2-(2-Methyl-5-nitroimidazol-1-yl)ethyl (3S,5R,6R)-2,2-dimethyl-6-phenoxy acetamidopenam-3-carboxylate]
- in vitro growth inhibition (in words) (Helicobacter pylori NCTC 11637, known for resistance against metronidazole): able to inhibit in vitro growth
- zone of inhibition at 50 µg/mL (Helicobacter pylori, 72 h, H. pylori strain 88-A-13, concentration 50 µg/ml, 7 mm means no activity): 30 mm
- zone of inhibition at 50 µg/mL [1]: 60 mm
- zone of inhibition at 50 µg/mL (Helicobacter pylori, 72 h, H. pylori strain B104, concentration 50 µg/ml, 7 mm means no activity): 42 mm
- zone of inhibition at 50 µg/mL [2]: 22 mm
- zone of inhibition at 50 µg/mL [3]: 48 mm
- zone of inhibition at 50 µg/mL [4]: 51 mm
- zone of inhibition at 50 µg/mL (Helicobacter pylori, 72 h, H. pylori strain D29, concentration 50 µg/ml, 7 mm means no activity): 77 mm
- zone of inhibition at 50 µg/mL [5]: 41 mm
- zone of inhibition at 1.7 µg/mL (Helicobacter pylori, NCTC11637, 72 h, H. pylori strain NCTC 11637, concentration 1.7 µg/ml, 7 mm means no activity): 19 mm
